Measurements reported in ChEMBL document CHEMBL1146039, “Synthesis and antitumor activity of two natural N-acetylglucosamine-bearing triterpenoid saponins: lotoidoside D and E” (Bioorg Med Chem Lett, 2006).

Legend:
[1] = tested on: WEHI-164; assay: Antitumor activity against WEHI 164 cell; format: functional, cell-based; details: Mus musculus
[2] = tested on: HeLa; assay: Antitumor activity against HeLa cell line at 100 nM by MTT assay; format: functional; details: Homo sapiens
[3] = tested on: HeLa; assay: Antitumor activity against HeLa cell line at 1 uM by MTT assay; format: functional; details: Homo sapiens
[4] = tested on: HeLa; assay: Antitumor activity against HeLa cell line at 10 uM by MTT assay; format: functional; details: Homo sapiens
[5] = tested on: HeLa; assay: Antitumor activity against HeLa cell line by MTT assay; format: functional, cell-based; details: Homo sapiens
[6] = tested on: HeLa; assay: Antitumor activity against HeLa cell line at 10 nM by MTT assay; format: functional; details: Homo sapiens

## CC(=O)N[C@H]1[C@H](O[C@H]2CC[C@]3(C)[C@H]4CC=C5[C@@H]6CC(C)(C)CC[C@]6(C(=O)O)CC[C@@]5(C)[C@]4(C)CC[C@H]3C2(C)C)O[C@H](CO)[C@H](O[C@@H]2O[C@H](CO)[C@@H](O)[C@H](O)[C@H]2O)[C@@H]1O[C@@H]1O[C@H](CO)[C@H](O)[C@H](O)[C@H]1O [LOTOIDOSIDE D]
[1]
  IC50: 360 nM
[2]
  inhibition at 0.1 µM: 32.8%
[3]
  inhibition at 1 µM: 35.3%
[4]
  inhibition at 10 µM: 56.4%
[5]
  IC50: 2740 nM
[6]
  inhibition at 0.01 µM: 34.4%

## CC(=O)N[C@H]1[C@H](O[C@H]2CC[C@]3(C)[C@H]4CC=C5[C@@H]6CC(C)(C)CC[C@]6(C(=O)O)CC[C@@]5(C)[C@]4(C)CC[C@H]3C2(C)C)O[C@H](CO)[C@@H](O)[C@@H]1O[C@@H]1O[C@H](CO)[C@H](O)[C@H](O)[C@H]1O [LOTOIDOSIDE E]
[1]
  IC50: 30 nM
[2]
  inhibition at 0.1 µM: 1.71%
[3]
  inhibition at 1 µM: 10%
[4]
  inhibition at 10 µM: 42%
[5]
  IC50: > 10000 nM
[6]
  inhibition at 0.01 µM: 0.79%
